One assay relates to MDA MB 468. Put plainly: Proliferation assay MDA MB 468. The following applies: Homo sapiens, Breast, 72 hours. In kind it is cell-based. The protocol:
(§1) Various cancer cell lines (listed in table 1) were plated at a density of 1000-5000 cells/well in 96-well plates in 90111 growth medium containing 10% FCS, 100 units/ml penicillin and 100 μg/ml streptomycin. Inhibitors were added a day later in 10 μl of 1% DMSO in DDW to obtain final concentrations of 0, 0.1, 0.3, 1, 3, and 10 μM. The final concentration of DMSO (0.1% DMSO) was kept constant in all samples. Medium with inhibitors was refreshed a day and two days later. Following exposure of the cells to the inhibitors for 72 hours at 37° C., the cells were fixed in 0.5% gluteraldehyde in medium for 10 min, washed three times with DDW, once with 0.1M sodium borate buffer pH 8.5 and stained with 1% methylene blue dissolved in 0.1M borate buffer solution for 60 min. Excess dye was washed out and cell-bound dye was eluted with 200 μl/well of 0.1 M HCl. The optical density value was read at 620 nm in ELISA plate reader. The data was analyzed in Microsoft Excel, using the vehicle control as 100% proliferation. The assays were performed in triplicates. The values in table 1 represent IC50 values derived from the dose-dependent growth curves obtained.
(§2) Compounds 6, 7, 8, and 9 were tested for their inhibitory potential in cell proliferation assay. In this assay cells were exposed to increasing concentrations of the molecules (at 0.1% DMSO in all wells) a day after seeding. Medium and inhibitors were refreshed every day, and following three days of treatment, cells were fixed and stained with methylene-Blue. IC50 values were determined from the curves of the optical density against compound concentration. The assay was performed in triplicates.

For another assay, the system named is IRS1. Put plainly: IRS1 Ser-phosphorylation and IRS1 levels in A2780 cells. In kind it is cell-based, human. The settings on record: ovarian cancer A2780 cells. The protocol:
In addition, lysates were prepared from cells exposed to inhibitors at various concentrations for 24 hours in the presence or the absence of FCS without stimulation. Lysate preparation and western blot were the same as described above. Apoptosis was detected by immunoblotting with rabbit anti-PARP antibodies.

In the next assay the target is T1, IGF1R (Homo sapiens, UniProt P08069).
T1 construct: made in house
T1 sequence (P08069 31-1367, species assumed): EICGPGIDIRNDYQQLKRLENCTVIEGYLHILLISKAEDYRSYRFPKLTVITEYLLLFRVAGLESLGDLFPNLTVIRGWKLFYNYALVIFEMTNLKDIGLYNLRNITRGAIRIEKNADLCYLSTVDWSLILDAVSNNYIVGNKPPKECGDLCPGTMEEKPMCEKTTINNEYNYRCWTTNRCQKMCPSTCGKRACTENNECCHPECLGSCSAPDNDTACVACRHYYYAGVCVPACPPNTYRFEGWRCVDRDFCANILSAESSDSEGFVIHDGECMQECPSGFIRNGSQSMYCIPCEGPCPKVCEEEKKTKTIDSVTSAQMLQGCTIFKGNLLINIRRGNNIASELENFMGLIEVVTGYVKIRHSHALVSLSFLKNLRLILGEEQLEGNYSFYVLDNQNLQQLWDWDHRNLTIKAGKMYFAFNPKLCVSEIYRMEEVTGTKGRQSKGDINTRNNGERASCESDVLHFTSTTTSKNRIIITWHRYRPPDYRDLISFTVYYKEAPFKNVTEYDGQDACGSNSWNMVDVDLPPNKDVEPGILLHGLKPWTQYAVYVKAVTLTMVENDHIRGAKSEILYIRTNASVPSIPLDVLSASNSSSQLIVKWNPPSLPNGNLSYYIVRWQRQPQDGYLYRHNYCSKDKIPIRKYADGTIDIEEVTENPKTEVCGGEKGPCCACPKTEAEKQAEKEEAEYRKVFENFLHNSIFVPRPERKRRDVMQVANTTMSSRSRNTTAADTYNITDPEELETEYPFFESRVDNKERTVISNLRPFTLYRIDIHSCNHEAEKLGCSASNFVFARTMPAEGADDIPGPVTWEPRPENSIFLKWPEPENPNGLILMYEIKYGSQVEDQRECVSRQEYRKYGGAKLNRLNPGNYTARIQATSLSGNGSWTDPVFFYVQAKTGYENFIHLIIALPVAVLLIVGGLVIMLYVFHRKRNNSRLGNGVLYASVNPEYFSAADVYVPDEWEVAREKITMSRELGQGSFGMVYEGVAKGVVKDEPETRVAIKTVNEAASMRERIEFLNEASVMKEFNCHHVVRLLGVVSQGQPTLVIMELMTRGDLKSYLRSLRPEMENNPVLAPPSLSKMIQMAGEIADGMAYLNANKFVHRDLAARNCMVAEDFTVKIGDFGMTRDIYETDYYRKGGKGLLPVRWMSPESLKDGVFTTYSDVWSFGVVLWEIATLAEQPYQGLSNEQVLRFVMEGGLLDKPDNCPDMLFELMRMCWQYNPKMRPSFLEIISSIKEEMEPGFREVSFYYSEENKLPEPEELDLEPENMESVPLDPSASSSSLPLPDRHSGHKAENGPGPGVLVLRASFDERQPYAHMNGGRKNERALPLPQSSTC
Put plainly: IGF1R cellular free kinase assay (pGT substrate phosphorylation). The following applies: for Competition with ATP (kinetic studies): elevation of ATP concentration. In kind it is biochemical. The protocol:
The general protein-tyrosine kinase substrate, poly(Glu,Tyr) 4:1 (pGT), was coated onto a 96-well Maxisorp plates (Nunc) by adding 125 μl of 0.1 mg/ml pGT in PBS to each well. Plates were sealed and incubated for 16 hours at 37° C., washed once with TBST (10 mM Tris-HCl, pH 7.5, 50 mM NaCl, and 0.1% Triton X-100) and once with DDW, dried for 2-3 hours, and stored at 4° C. […] The plate was then washed with TBS with 0.2% Tween 20 (TBST) and blocked with 0.5% BSA in TBST. Mouse monoclonal anti-phosphotyrosine antibody, conjugated to Horse radish peroxidase (PT-66, 1:50000) was added to the plate. Following incubation for 45 min at room temperature, the plate was washed repeatedly with TBST. Detection was carried out with a color reagent, 2,2′-azido-bis-3-ethylbenzithiazoline-6-sulfonic acid, in citrate-phosphate buffer, pH 4.0, with 0.004% H2O2 for 10 min and monitored at 405 nm, all at room temperature. IC50 values of inhibitors were calculated using the REGRESSION program. The assay was optimized with respect to the amount of IGF-1R (partially purified from cells overexpressing IGF1R), reaction time, and ATP concentration. The signal was linear for 30 min in the range of IGF1R protein concentrations up to 35 ng/well.

The next assay deals with A2780 tumors. In words: Ovarian cancer A2780 xenograft tumor growth. In kind it is in vivo, nude mice. The settings on record: for Inhibition of ovarian tumor growth, comparative study: A2780, IP once a day, 20 mg/kg (FIG. 13); for Growth inhibition of ovarian cancer A2780 tumors / Growth inhibition of ovarian A2780 tumors: IP, 1/day; for Growth inhibition of ovarian cancer A2780 tumors: 20 mg/kg (FIG. 12); for Growth inhibition of ovarian A2780 tumors: 50 mg/kg. The protocol:
Human hormone-refractory prostate cancer PC3 cells (ATCC, 1.5×10^6 cells per mouse) were injected subcutaneously into the right leg of Nude:Hsd mice (purchased from Harlan). Ten days later, when palpable tumors had developed, mice were divided into 3 groups with similar average tumor size. […] The mice treated with compound 7 group were daily injected with compound 7 dissolved in the below described vehicle, and the vehicle-treated group (veh) was daily injected by the vehicle alone. Vehicle included 4.4% DMSO, 1.2% Ethanol and 50% PEG400 in DDW; Groups were composed of 3 mice per group. Dose administered IP was 50 mg/Kg (4 ml/Kg) once a day for one month. The length (l) and the width (w) of the tumors were measured every day and the volumes of the tumors were calculated as follows: v=1w^2/2. Graphs present average volumes of the tumors versus time in days. The procedure was followed for the other described in-vivo studies with the following modifications:
Human ovary cancer A2780 cells (from ECACC, 2×10^6 cells per mouse) were injected subcutaneously into the right leg of female Nude:Hsd mice (purchased from Harlan). Inhibitors were injected IP daily at doses of 20 mg/kg (Exp. 2&3) or 50 mg/kg (Exp. 4) dissolved in 4.4% DMSO, 0.12% EtOH, 50% PEG-400 in DDW at volume of 4 ml/kg. The Veh group received 4.4% DMSO, 0.12% EtOH, 50% PEG-400 in DDW at volume of 4 ml/kg.

The next assay relates to SKOV-3. Put plainly: Proliferation assay SKOV-3. In kind it is cell-based. The settings on record: Homo sapiens, SK-OV-3, Ovarian, 72 hours. The protocol:
as §1, §2

For the next assay, the system named is YURIF. In words: Proliferation assay YURIF. In kind it is cell-based. The following applies: Homo sapiens. The method, then: as §1, §2
Another assay relates to T47D. Put plainly: Proliferation assay T47D. In kind it is cell-based. The settings on record: Homo sapiens, Breast, 72 hours. The method, then: as §1, §2
The next assay has as its system U138MG. Put plainly: Clonogenic assay U138MG. In kind it is cell-based. The settings on record: Homo sapiens, U138-MG, Glioma. The method, then:
(§3) Various cancer cells (listed in table 1) were seeded at a very low concentration (19 cells/well in 96-well plates or 63 cells/well in 24-well plates) in growth medium. A day later medium was replaced with growth medium containing various concentrations of inhibitors in a final concentration of 0.1% DMSO. The inhibitor-containing medium was refreshed three times a week. Following approximately two weeks cells were fixed by adding Gluteraldehide (0.5% final concentration) for 10 min, washed three time with DDW, once with borate buffer 0.1M and stained for 1 hour with 1% Methylene Blue in borate buffer 0.1M. Access stain was washed with water, and following drying colonies were counted. Alternatively, stain was extracted by 0.1N HCl for 1 hour and absorbance at 620 nm was measured by ELISA Reader. The assays were performed in triplicates. The values in table 1 represent IC50 values derived from the dose-dependent growth curves obtained.

The subject of the next assay is B16. In words: Clonogenic assay B16. In kind it is cell-based. The following applies: Mus musculus, Melanoma. The protocol: as §3
Where [1] appears, read: [ATP] 2.5 μM, read-out: IC50, competition with ATP in cellular free kinase assay of IGF1R.
Where [2] appears, read: [ATP] 5 μM, read-out: IC50, competition with ATP in cellular free kinase assay of IGF1R.
Where [3] appears, read: [ATP] 10 μM, read-out: IC50, competition with ATP in cellular free kinase assay of IGF1R.
[4] abbreviates: [ATP] 20 μM, read-out: IC50, competition with ATP in cellular free kinase assay of IGF1R.
The mark [5] stands for this setting: [ATP] 50 μM, read-out: IC50, competition with ATP in cellular free kinase assay of IGF1R.
Where [6] appears, read: partially purified IGF1R, 20 μM ATP, read-out: IC50 values of IGF1R activity in cellular free kinase assay.
Where [7] appears, read: Melanoma, YURIF, 72 hours, read-out: Proliferation assay IC50.
[8] abbreviates: Table 4, 72 hours incubation, read-out: Inhibition of human metastatic melanoma cells, YURIF IC50.

The record followed here is US8058309B2, “Protein kinase modulators and therapeutic uses thereof” (Novotyr Therapeutics Ltd., priority 2006, dated 2011).

Read-outs that look alike come from different tables or passages of the source. Bounds are passed on as bounds.

`N#C/C(=C\c1cc(O)c(O)c(I)c1)C(=S)NCc1cc(O)c(O)c(O)c1` [Compound 8]: the IC50 came out at 5800 nM in the assay with MDA MB 468; 190 nM on IGF1R (setting [1]); 110 nM at IGF1R (setting [2]); 100 nM at IGF1R (setting [3]); 80 nM at IGF1R (setting [4]); 100 nM on IGF1R (setting [5]). Further, the IC50 came to 76 nM at IGF1R (setting [6]); 3500 nM in the assay with SKOV-3; 1600 nM in the assay on YURIF (setting [7]); 1600 nM with YURIF (setting [8]); 2500 nM in the assay with T47D; 1600 nM in the assay with U138MG. The IC50 in the assay with B16 is 400 nM. Further, the “Cellular IRS1 levels” value in the assay with IRS1 is recorded as “a decrease in cellular IRS1 levels”. For the same compound, the “IRS1 Ser-phosphorylation (shift up of IRS1 band)” value in the assay on IRS1 is on record as “induced Ser-phosphorylation”. Moreover, on IGF1R, the “Competition with ATP (kinetic studies)” value is given as “do not compete with ATP”. In addition, the “Inhibition of ovarian tumor growth, comparative study” value (from here on “Inhibition of ovarian tumor growth”) in the assay on A2780 tumors is “approximately 90%”. Moreover, the “Growth inhibition of ovarian cancer A2780 tumors” value in the assay on A2780 tumors is reported as 87%. Besides, the “Growth inhibition of ovarian A2780 tumors” value is recorded as 82% with A2780 tumors (tumors larger than 50 mm^3 at start) and “approximately 85%” with A2780 tumors (tumors larger than 470 mm^3 at start).

On to `Oc1cc(CNC(=S)/C=C/c2cc(O)c(O)c(Br)c2)cc(O)c1O` [Compound 9], for which the IC50 is 7200 nM in the assay with MDA MB 468; 78 nM at IGF1R (setting [6]); 4300 nM in the assay on SKOV-3; 700 nM in the assay on YURIF (setting [7]); 650 nM in the assay with YURIF (setting [8]); 1600 nM with T47D. Moreover, in the assay on U138MG, the IC50 stood at 500 nM. In addition, the “Cellular IRS1 levels” value in the assay with IRS1 is recorded as “a decrease in cellular IRS1 levels”. Moreover, the “IRS1 Ser-phosphorylation (shift up of IRS1 band)” value in the assay with IRS1 was “induced Ser-phosphorylation”. Besides, in the assay on A2780 tumors, the “Inhibition of ovarian tumor growth” value was “approximately 90%”.

For `N#C/C(=C\c1cc(O)c(O)c(Br)c1)C(=S)NCc1cc(O)c(O)c(O)c1` [Compound 7], the IC50 with MDA MB 468 is above 10000 nM; at IGF1R (setting [1]) it was 190 nM; on IGF1R (setting [2]), 163 nM; on IGF1R (setting [3]), 124 nM; on IGF1R (setting [4]), 90 nM; at IGF1R (setting [5]), 80 nM. For the same compound, the IC50 on IGF1R (setting [6]) was determined as 116 nM; with SKOV-3, 5300 nM; in the assay with YURIF (setting [7]) it was 1400 nM; with YURIF (setting [8]) it was 1400 nM; with T47D, 2100 nM; in the assay with U138MG, 1800 nM. In the assay with B16, this compound had an IC50 of 400 nM. In addition, in the assay on IRS1, the “Cellular IRS1 levels” value is reported as “a decrease in cellular IRS1 levels”. Further, the “IRS1 Ser-phosphorylation (shift up of IRS1 band)” value in the assay on IRS1 was “induced Ser-phosphorylation”. The “Competition with ATP (kinetic studies)” value on IGF1R is listed as “do not compete with ATP”. Moreover, in the assay on A2780 tumors, the “Inhibition of ovarian tumor growth” value was “approximately 90%”. Further, the “Growth inhibition of ovarian cancer A2780 tumors” value in the assay with A2780 tumors worked out at 87%.

Regarding `N#C/C(=C\c1cc(O)c(O)c(Br)c1)C(=S)NCc1cc(O)c(O)c(Br)c1` [Compound 6], the IC50 was above 10000 nM in the assay on MDA MB 468; 74 nM at IGF1R (setting [1]); 56 nM at IGF1R (setting [2]); 92 nM on IGF1R (setting [3]); 55 nM at IGF1R (setting [4]); 98 nM at IGF1R (setting [5]). In addition, the IC50 at IGF1R (setting [6]) was 98 nM; in the assay with SKOV-3, above 10000 nM; in the assay with YURIF (setting [7]) it was above 10000 nM; with YURIF (setting [8]), above 10000 nM; in the assay on T47D it was above 10000 nM; in the assay on U138MG, 2200 nM. The IC50 in the assay with B16 was determined as 800 nM. Further, the “Competition with ATP (kinetic studies)” value at IGF1R was “do not compete with ATP”. In addition, the “Inhibition of ovarian tumor growth” value in the assay on A2780 tumors came to 33%.
